# Literature values, collected in patent publication US6750247B2, “Sponge-derived terpenoids and methods of use” (Galileo Laboratories, Inc., priority 2001, dated 2004).
# Target: T1, lipoxygenase (Homo sapiens, UniProt P09917)
# T1 sequence (P09917 1-674): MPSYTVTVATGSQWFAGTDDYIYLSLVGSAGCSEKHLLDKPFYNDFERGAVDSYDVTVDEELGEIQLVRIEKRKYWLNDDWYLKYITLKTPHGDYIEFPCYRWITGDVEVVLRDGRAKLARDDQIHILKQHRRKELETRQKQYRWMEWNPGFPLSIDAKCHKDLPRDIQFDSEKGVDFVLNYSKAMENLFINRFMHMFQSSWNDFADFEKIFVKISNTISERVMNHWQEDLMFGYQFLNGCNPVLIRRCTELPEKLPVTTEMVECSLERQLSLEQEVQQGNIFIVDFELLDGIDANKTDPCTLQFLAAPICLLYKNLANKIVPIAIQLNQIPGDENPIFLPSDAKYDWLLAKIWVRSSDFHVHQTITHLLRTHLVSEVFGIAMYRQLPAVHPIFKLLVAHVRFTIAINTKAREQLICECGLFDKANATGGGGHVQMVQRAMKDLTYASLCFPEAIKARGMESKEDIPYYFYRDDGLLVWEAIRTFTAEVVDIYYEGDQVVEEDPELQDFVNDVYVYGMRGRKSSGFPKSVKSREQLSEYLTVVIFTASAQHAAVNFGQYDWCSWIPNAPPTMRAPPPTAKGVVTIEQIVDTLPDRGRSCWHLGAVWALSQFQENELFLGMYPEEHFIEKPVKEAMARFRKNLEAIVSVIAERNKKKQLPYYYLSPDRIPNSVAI
# Details: Cabre et al., Inflamm. Res. 1996; cited from earlier work
compound,measurement,value
CC1=C(CC/C(C)=C/CCC2=CC[C@H](C3=CC(=O)O[C@H]3O)O[C@H]2O)C(C)(C)CCC1 [manoalide],lipoxygenase inhibitory properties,no lipoxygenase inhibitory properties
